{"source": "patent US10046150B2", "about": "“Lysine delivery systems for blood coagulation” (Park City Bio, LLC, priority 2013, dated 2018)", "system": "nose bleed", "experiment": "treatment of a nose bleed with a nose plug (tissue, gauze or absorbent body) carrying lysine powder", "format": "in vivo", "protocol": "As a control, regular tissue and regular gauze were used to treat a nose bleed by rolling or otherwise fashioning a nose plug from the materials, and no lysine was added. The tissues and gauze appear to absorb the blood, but the blood continues to flow. In some instances, the blood flow can be significant and require a large number of sequential tissues or gauze. Nose bleeds treated with tissues can last 10 minutes or more up to an hour or longer when the bleed is significant. In some instances a nose bleed can be from both nostrils and both nostrils have to be plugged with a nose plug.\nThe nose bleed often stops within 1 minute when the tissue includes lysine, compared a long period when only tissues are used. A significant bleed was stopped within 5 minutes when lysine was included in the gauze. […] Available lysine was present after the nose bleed was treated to stop blood flow. […] Accordingly, substantially less than 500 mg lysine (E.g., 5 mg) is needed to stop bleeding in a short time. The device including the tissue and the lysine powder is able to be withdrawn with the blood no longer flowing through the nose.\nAdditionally, there was still excess powder. The gauze was rolled up with the lysine powder at one end, and the lysine powder was inserted into the nose, then the gauze was released and allowed to expand and plug the nose.\nFIG. 12—illustrate an embodiment of a method of making a blood coagulating device with a lysine reservoir. […] The gauze is not hemostatic (Walgreens Premium Rolled Gauze—for secure dressings and light absorption. The device is made by: forming an absorptive body to a size and shape of a sheet; placing lysine powder on a surface of the sheet, where the lysine may be anywhere, but shown to be placed along a center crease. Adhesive is used to stick the surface to itself when the substrate is folded at the center crease so that the folded body has the lysine at the fold. The additional adhesive is put on the surface that is showing, and the sheet is rolled into a cylindrical device. The device has the lysine in a multi-layered chamber with the lysine located at one end. […] The marked end of the controls is not inserted in the nose.", "data": [{"smiles": "NCCCC[C@H](N)C(=O)O", "note": "[lysine]", "values": [{"measurement": "time until the nose bleed stopped", "setting": "hemostat gauze (regenerated etherized and oxidized natural fiber cellulose) having about 250 mg lysine powder, slower bleed", "value": "within a minute"}, {"measurement": "time until the gauze could be removed", "setting": "hemostat gauze having about 250 mg lysine powder, slower bleed", "value": "just over a minute"}, {"measurement": "effect on blood flow / bleeding (in words)", "setting": "nose bleed", "value": "promotes clotting"}, {"measurement": "blood absorbed by the device (in words)", "setting": "nose bleed, compared with control without lysine where stated", "value": "didn't absorb much blood"}]}]}
